Laboratory results from ChEMBL document CHEMBL5465560, “Selectivity Literature for EUbOPEN Chemogenomic Library” (2024).
Values belong to the molecule of their own block, whether it stands above or below them.

Key:
[1] = target: Dual specificity mitogen-activated protein kinase kinase 1 (Homo sapiens, UniProt Q02750); experiment: Selectivity interaction (ActivX KiNativ screen (kinase selectivity in THP-1 cell lysates)) EUB0000639a MAP2K1; assay type: subcellular; details: lysate, at 0.2 µM
[2] = target: Dual specificity mitogen-activated protein kinase kinase 2 (Homo sapiens) (UniProt P36507); experiment: Selectivity interaction (ActivX KiNativ screen (kinase selectivity in THP-1 cell lysates)) EUB0000639a MAP2K2; assay type: subcellular; details: lysate, at 0.01 µM
[3] = target: Activin receptor type-2A (Homo sapiens) (UniProt P27037); experiment: Selectivity interaction (ProQinase) EUB0000171b ACVR2A
Activin receptor type-2A (Homo sapiens), sequence (P27037 whole entry): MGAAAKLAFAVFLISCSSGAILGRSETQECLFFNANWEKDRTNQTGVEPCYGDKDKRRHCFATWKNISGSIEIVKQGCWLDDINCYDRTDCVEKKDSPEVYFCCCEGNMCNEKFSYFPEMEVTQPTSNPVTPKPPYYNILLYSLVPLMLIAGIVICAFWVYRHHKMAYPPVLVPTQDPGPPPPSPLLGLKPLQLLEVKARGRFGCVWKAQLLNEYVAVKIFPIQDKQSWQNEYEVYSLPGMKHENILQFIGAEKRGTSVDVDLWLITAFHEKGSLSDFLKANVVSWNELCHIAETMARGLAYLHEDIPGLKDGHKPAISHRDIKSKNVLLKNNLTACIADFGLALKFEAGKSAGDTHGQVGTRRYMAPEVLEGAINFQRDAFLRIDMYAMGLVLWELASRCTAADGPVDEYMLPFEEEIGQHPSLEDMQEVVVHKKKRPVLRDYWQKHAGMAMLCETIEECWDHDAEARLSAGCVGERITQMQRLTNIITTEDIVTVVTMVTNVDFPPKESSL

[4] = target: T1, Death-associated protein kinase 1 (Homo sapiens, UniProt P53355); experiment: Selectivity interaction (ProQinase) EUB0000171b DAPK1
T1 sequence (P53355 whole entry, looked up): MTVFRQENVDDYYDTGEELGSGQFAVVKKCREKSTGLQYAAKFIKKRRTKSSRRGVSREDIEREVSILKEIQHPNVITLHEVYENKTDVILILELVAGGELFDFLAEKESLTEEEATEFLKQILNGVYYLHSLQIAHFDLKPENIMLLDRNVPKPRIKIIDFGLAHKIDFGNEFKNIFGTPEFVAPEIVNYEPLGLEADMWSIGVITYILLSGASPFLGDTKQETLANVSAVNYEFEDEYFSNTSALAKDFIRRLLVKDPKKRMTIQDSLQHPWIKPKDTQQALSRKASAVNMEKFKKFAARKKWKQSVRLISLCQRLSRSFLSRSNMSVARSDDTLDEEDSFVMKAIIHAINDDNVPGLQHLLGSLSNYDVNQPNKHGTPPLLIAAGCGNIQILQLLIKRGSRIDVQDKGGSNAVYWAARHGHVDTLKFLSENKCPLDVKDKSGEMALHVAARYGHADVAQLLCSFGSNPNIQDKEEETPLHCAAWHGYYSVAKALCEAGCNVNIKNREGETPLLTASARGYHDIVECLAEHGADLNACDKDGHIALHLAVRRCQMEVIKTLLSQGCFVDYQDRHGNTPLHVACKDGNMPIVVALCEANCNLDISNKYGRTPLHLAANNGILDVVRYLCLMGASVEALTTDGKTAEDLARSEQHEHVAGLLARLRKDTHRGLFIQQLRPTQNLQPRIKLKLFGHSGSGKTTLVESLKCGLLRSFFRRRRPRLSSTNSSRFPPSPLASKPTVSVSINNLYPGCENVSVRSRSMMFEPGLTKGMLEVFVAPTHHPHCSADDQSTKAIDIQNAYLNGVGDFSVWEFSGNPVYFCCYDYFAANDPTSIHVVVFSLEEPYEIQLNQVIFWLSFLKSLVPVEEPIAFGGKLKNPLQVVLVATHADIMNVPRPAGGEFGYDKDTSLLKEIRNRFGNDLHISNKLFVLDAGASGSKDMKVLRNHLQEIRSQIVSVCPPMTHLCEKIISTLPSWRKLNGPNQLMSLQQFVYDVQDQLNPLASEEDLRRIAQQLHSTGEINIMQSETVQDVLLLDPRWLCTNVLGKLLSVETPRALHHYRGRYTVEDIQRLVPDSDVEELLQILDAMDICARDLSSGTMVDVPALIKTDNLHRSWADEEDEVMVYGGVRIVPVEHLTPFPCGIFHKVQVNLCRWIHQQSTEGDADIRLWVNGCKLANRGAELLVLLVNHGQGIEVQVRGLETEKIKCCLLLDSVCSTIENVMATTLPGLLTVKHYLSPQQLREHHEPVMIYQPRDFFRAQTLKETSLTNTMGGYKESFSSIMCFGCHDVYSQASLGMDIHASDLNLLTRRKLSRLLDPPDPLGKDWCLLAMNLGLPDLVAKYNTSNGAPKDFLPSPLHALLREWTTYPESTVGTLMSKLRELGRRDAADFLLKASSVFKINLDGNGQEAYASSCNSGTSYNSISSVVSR

[5] = target: T2, Tyrosine-protein kinase Mer (Homo sapiens) (UniProt Q12866); experiment: Selectivity interaction (KinomeScan (DiscoverX)) EUB0000695a MERTK; details: at 100 nM
T2 sequence (whole entry): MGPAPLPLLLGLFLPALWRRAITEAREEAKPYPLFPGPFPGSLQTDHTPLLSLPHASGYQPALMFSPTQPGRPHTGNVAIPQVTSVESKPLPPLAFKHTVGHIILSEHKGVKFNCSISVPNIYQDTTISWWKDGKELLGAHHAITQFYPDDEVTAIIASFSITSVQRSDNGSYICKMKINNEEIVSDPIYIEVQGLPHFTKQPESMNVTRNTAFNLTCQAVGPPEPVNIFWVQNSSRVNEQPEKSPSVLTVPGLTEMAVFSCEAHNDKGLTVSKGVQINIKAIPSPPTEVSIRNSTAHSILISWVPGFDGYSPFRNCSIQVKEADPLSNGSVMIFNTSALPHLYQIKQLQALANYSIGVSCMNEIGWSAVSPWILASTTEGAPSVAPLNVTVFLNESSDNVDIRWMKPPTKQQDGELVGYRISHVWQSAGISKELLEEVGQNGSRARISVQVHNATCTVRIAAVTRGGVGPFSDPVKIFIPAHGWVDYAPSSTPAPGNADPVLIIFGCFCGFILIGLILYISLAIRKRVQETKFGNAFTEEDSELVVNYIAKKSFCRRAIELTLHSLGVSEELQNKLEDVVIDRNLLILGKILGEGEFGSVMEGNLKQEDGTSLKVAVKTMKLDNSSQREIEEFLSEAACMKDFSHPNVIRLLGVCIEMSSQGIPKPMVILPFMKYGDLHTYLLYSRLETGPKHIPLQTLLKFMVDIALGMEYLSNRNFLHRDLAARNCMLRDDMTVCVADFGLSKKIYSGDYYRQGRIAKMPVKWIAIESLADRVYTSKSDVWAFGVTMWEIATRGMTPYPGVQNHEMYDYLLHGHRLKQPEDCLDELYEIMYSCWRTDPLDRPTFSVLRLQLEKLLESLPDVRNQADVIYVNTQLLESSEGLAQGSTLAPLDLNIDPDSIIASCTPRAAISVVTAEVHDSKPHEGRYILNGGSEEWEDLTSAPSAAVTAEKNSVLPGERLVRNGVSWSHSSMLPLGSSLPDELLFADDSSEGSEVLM

[6] = target: T3, Mitogen-activated protein kinase kinase kinase 15 (Homo sapiens) (UniProt Q6ZN16); experiment: Selectivity interaction (KinomeScan (DiscoverX)) EUB0000695a MAP3K15; details: at 100 nM
T3 sequence (whole entry): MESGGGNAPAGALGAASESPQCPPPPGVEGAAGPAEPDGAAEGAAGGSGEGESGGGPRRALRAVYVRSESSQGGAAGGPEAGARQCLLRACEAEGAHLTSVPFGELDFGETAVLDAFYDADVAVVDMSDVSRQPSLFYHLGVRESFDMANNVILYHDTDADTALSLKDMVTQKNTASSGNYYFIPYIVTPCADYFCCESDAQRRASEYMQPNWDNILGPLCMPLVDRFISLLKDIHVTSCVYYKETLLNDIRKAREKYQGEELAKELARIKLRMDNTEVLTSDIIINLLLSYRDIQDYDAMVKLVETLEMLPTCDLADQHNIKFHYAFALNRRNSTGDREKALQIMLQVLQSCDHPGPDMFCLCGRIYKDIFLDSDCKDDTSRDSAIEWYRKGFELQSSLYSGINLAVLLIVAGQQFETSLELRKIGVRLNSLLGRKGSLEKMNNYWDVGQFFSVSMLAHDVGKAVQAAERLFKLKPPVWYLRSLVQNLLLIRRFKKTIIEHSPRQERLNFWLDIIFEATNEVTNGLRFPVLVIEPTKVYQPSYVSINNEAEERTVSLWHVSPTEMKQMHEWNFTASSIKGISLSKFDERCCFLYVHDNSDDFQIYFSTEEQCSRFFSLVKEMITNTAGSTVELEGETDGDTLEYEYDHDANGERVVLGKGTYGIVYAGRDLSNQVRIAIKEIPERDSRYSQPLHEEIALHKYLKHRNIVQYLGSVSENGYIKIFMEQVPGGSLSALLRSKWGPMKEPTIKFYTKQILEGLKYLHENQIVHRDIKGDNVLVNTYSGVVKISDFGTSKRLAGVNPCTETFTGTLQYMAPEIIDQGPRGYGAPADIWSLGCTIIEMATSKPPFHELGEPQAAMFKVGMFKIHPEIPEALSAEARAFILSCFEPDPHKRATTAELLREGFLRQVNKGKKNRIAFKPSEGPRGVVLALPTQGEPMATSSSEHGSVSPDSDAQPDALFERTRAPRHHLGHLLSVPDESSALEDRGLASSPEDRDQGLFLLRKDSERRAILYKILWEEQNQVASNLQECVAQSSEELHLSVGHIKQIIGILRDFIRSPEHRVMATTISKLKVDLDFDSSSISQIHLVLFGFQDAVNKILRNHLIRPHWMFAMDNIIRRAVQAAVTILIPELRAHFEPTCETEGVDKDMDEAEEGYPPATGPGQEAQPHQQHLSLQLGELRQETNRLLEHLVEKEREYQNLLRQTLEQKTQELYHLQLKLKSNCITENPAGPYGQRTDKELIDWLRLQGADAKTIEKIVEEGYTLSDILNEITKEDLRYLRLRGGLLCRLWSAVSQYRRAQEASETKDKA

[7] = target: T1, Death-associated protein kinase 1; experiment: Selectivity interaction (Ambit KINOMEscan and KiNATiv profiling in Jurkat cells) EUB0000090b DAPK1; assay type: cell-based; details: at 1 µM
[8] = target: Serine/threonine-protein kinase MRCK alpha (Homo sapiens) (UniProt Q5VT25); experiment: Selectivity interaction (KinomeScan (DiscoverX)) EUB0000092b CDC42BPA; details: at 10 µM
Serine/threonine-protein kinase MRCK alpha (Homo sapiens), sequence (Q5VT25 whole entry): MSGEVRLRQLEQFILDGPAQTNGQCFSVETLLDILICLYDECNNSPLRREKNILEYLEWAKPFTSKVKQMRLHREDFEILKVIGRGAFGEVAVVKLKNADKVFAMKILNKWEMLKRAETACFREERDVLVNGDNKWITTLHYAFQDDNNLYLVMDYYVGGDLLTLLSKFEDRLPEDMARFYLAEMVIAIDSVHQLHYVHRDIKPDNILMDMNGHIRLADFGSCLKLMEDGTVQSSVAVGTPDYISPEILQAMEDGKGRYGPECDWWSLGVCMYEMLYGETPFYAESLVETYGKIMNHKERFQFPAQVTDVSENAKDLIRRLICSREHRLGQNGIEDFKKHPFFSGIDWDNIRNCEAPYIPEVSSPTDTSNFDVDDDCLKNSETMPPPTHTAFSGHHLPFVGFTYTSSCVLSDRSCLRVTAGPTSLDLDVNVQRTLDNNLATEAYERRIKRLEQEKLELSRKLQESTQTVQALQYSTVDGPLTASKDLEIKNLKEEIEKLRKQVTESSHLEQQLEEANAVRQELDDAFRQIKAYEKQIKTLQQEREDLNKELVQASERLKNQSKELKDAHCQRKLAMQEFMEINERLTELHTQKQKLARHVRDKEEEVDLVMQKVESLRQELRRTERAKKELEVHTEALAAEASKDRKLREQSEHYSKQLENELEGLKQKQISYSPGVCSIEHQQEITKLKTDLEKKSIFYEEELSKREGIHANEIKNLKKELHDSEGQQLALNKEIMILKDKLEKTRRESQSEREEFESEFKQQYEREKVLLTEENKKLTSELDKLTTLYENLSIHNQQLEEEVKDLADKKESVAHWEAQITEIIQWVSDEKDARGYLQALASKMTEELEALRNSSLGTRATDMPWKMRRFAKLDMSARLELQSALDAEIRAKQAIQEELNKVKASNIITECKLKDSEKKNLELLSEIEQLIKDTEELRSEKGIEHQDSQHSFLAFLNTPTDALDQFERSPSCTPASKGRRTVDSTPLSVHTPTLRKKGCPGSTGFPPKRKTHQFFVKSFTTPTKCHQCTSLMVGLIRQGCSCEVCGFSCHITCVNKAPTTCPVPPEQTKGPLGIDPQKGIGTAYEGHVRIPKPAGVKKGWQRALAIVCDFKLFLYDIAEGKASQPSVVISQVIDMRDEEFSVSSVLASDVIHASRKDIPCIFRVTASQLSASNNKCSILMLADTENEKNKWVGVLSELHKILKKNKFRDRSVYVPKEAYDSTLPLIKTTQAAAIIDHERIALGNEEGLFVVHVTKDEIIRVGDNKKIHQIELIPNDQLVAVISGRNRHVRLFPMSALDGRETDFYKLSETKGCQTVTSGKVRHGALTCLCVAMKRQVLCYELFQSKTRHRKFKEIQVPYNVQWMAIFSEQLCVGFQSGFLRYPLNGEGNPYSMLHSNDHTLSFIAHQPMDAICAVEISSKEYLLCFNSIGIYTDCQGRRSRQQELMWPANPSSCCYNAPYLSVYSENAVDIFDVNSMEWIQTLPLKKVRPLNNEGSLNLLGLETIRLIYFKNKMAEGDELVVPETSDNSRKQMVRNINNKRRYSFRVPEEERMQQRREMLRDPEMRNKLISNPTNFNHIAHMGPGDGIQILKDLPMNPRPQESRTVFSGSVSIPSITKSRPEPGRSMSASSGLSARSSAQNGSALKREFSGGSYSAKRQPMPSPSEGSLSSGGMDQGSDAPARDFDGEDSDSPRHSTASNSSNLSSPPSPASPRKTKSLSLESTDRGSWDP

[9] = target: Serine/threonine-protein kinase OSR1 (Homo sapiens) (UniProt O95747); details: at 10 µM
[10] = target: Tyrosine-protein kinase ABL1 (Homo sapiens, UniProt P00519); experiment: Selectivity interaction (ActivX KiNativ screen (ex vivo kinase selectivity in human PBMCs)) EUB0001619a ABL1; assay type: cell-based; details: PBMC, at 1 µM
Tyrosine-protein kinase ABL1, sequence (P00519 whole entry): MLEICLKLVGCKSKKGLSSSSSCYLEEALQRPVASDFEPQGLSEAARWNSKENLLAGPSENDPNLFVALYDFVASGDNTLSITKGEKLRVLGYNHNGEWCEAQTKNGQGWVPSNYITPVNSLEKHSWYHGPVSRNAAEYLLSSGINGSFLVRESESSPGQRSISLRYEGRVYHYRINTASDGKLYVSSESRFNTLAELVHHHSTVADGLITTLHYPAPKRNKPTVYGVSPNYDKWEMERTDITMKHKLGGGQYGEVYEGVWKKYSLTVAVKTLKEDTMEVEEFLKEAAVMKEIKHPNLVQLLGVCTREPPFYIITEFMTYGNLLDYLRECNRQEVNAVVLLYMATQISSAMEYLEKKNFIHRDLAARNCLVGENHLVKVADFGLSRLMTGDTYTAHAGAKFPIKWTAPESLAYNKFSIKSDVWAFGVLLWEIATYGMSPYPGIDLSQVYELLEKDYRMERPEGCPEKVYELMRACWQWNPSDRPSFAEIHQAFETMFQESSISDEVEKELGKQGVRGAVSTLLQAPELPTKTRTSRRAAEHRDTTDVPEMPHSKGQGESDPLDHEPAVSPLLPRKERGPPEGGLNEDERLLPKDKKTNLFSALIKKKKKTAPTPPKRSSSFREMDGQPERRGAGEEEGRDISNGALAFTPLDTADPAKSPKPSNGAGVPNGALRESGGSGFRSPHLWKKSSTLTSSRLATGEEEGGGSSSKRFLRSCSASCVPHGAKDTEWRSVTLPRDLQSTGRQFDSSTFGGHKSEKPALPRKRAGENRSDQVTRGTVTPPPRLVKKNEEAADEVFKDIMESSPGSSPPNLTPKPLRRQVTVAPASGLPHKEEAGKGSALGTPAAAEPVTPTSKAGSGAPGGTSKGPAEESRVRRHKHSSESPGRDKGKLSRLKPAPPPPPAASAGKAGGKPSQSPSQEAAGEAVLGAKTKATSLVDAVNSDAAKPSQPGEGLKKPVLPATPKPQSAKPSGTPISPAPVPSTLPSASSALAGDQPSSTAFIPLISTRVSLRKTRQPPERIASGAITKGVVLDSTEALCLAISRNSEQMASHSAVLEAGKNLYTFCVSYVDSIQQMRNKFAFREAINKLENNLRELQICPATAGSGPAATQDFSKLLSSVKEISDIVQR

- % of inhibition [1]: 3.9%
- % of inhibition [2]: -2%
SMILES: CC[C@@H]1[C@H](F)C(=O)N[C@@H]1COc1nccc2cc(C(N)=O)c(OC)cc12 [ZIMLOVISERTIB]

- % of control ([3]; at 1 µM): 81%
- % of control ([3]; at 5 µM): 80%
SMILES: C=CC(=O)Nc1cccc(C(=O)Nc2ccc(Nc3cc(-c4[nH]c(SC)nc4C)ccn3)cc2)c1
- % of control ([4]; at 1 µM): 100%
- % of control ([4]; at 5 µM): 94%

SMILES: Cc1cc(F)c(C(=O)Nc2cccc(-c3nncn3C(C)C)n2)cc1-n1cnc(C2CC2)c1
- % of control [5]: 99%
- % of control [6]: 66%

SMILES: CN(C)C/C=C/C(=O)Nc1ccc(C(=O)N2CCCC(Nc3ncc(Cl)c(-c4c[nH]c5ccccc45)n3)C2)cc1 (configuration not stated)
- % of control [7]: 80%

SMILES: CCC(=O)N1CCN(c2ccc(-n3c(=O)ccc4cnc5ccc(-c6cnc7ccccc7c6)cc5c43)cc2C(F)(F)F)CC1
- % of control [8]: 0.7%

SMILES: Cc1cc([C@@H](C)Nc2ccccc2C(=O)O)c2nc(N3CCOCC3)cc(=O)n2c1 [AZD-6482]
- % of control [9]: 100%

SMILES: N#Cc1cccc(-c2c[nH]c3ncnc(N4CCOCC4)c23)c1
- % of inhibition [10]: -1%
